Source: publication PMC11240878, “Synthesis, enzyme inhibition assay, and molecular modeling study of novel pyrazolines linked to 4-methylsulfonylphenyl scaffold: antitumor activity and cell cycle analysis” (RSC Advances, 2024)

How the values were obtained:
SNB-75 = test: NCI single-dose GI%, CNS; format: cell-based, human; details: SNB-75, CNS; 10.0 μM in one dose
RPMI-8226 = test: NCI single-dose GI%, leukemia; format: cell-based, human; details: RPMI-8226, leukemia; 10.0 μM in one dose
MOLT-4 = test: NCI single-dose GI%, leukemia; format: cell-based, human; details: MOLT-4, leukemia; 10.0 μM in one dose
COX-2 = target: T1, COX-2 (Ovis aries, UniProt P79208); test: Colorimetric COX-2 inhibition assay
T1 sequence (P79208 17-603): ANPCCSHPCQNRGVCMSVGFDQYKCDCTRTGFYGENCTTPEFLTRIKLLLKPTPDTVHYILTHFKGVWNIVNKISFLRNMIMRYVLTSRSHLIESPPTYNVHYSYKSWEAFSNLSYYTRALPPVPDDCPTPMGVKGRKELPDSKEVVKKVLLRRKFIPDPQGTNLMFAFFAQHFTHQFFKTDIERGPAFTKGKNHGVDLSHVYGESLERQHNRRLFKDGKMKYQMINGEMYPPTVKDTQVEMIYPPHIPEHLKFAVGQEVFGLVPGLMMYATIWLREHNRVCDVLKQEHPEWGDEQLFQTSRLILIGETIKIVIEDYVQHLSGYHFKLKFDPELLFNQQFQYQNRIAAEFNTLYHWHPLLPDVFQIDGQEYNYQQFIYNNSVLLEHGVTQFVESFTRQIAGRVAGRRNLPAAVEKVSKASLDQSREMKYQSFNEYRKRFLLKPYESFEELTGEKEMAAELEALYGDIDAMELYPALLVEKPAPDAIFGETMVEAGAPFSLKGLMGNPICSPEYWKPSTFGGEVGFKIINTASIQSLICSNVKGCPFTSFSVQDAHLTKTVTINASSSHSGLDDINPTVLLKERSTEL

OVCAR-8 = test: NCI single-dose GI%, ovarian; format: cell-based, human; details: OVCAR-8, ovarian; 10.0 μM in one dose
IGROV1 = test: NCI single-dose GI%, ovarian; format: cell-based, human; details: 10.0 μM in one dose
OVCAR-3 = test: NCI single-dose GI%, ovarian; format: cell-based, human; details: OVCAR-3, ovarian; 10.0 μM in one dose
HS 578T = test: NCI single-dose GI%, breast; format: cell-based, human; details: 10.0 μM in one dose
MALME-3M = test: NCI single-dose GI%, melanoma; format: cell-based, human; details: 10.0 μM in one dose
SK-MEL-5 = test: NCI single-dose GI%, melanoma; format: cell-based, human; details: SK-MEL-5, melanoma; 10.0 μM in one dose
SW-620 = test: NCI single-dose GI%, colon; format: cell-based, human; details: SW-620, colon; 10.0 μM in one dose
786-0 = test: NCI single-dose GI%, renal; format: cell-based, human; details: 786-0, renal; 10.0 μM in one dose
KM12 = test: NCI single-dose GI%, colon; format: cell-based, human; details: 10.0 μM in one dose
NCI-H460 = test: NCI single-dose GI%, NSC lung; format: cell-based, human; details: 10.0 μM in one dose
SK-MEL-28 = test: NCI single-dose GI%, melanoma; format: cell-based, human; details: SK-MEL-28, melanoma; 10.0 μM in one dose
ACHN = test: NCI single-dose GI%, renal; format: cell-based, human; details: 10.0 μM in one dose
SR = test: NCI single-dose GI%, leukemia; format: cell-based, human; details: 10.0 μM in one dose
SF-268 = test: NCI single-dose GI%, CNS; format: cell-based, human; details: SF-268, CNS; 10.0 μM in one dose
MDA-MB-435 = test: NCI single-dose GI%, melanoma; format: cell-based, human; details: MDA-MB-435, melanoma; 10.0 μM in one dose
OVCAR-4 = test: NCI single-dose GI%, ovarian; format: cell-based, human; details: OVCAR-4, ovarian; 10.0 μM in one dose
MDA-MB-231/ATCC = test: NCI single-dose GI%, breast; format: cell-based, human; details: 10.0 μM in one dose
HCT-116 = test: NCI single-dose GI%, colon; format: cell-based, human; details: HCT-116, colon; 10.0 μM in one dose
LOX IMVI = test: NCI single-dose GI%, melanoma; format: cell-based, human; details: 10.0 μM in one dose
SK-MEL-2 = test: NCI single-dose GI%, melanoma; format: cell-based, human; details: SK-MEL-2, melanoma; 10.0 μM in one dose
MDA-MB-468 = test: NCI single-dose GI%, breast; format: cell-based, human; details: MDA-MB-468, breast; 10.0 μM in one dose
HCT-15 = test: NCI single-dose GI%, colon; format: cell-based, human; details: HCT-15, colon; 10.0 μM in one dose
UACC-62 = test: NCI single-dose GI%, melanoma; format: cell-based, human; details: UACC-62, melanoma; 10.0 μM in one dose
SF-295 = test: NCI single-dose GI%, CNS; format: cell-based, human; details: SF-295, CNS; 10.0 μM in one dose
M14 = test: NCI single-dose GI%, melanoma; format: cell-based, human; details: 10.0 μM in one dose
NCI-H322M = test: NCI single-dose GI%, NSC lung; format: cell-based, human; details: 10.0 μM in one dose
SNB-19 = test: NCI single-dose GI%, CNS; format: cell-based, human; details: SNB-19, CNS; 10.0 μM in one dose
NCI-H23 = test: NCI single-dose GI%, NSC lung; format: cell-based, human; details: 10.0 μM in one dose
NCI/ADR-RES = test: NCI single-dose GI%, ovarian; format: cell-based, human; details: 10.0 μM in one dose
SN12C = test: NCI single-dose GI%, renal; format: cell-based, human; details: 10.0 μM in one dose
NCI-H226 = test: NCI single-dose GI%, NSC lung; format: cell-based, human; details: 10.0 μM in one dose
[1] = tested on: breast adenocarcinoma MCF-7; details: human, 48 h
CCRF-CEM = test: NCI single-dose GI%, leukemia; format: cell-based, human; details: 10.0 μM in one dose

Compound	GI% (SNB-75) [%]	GI% (RPMI-8226) [%]	GI% (MOLT-4) [%]	IC50 (COX-2) [µM]	GI% (OVCAR-8) [%]	GI% (IGROV1) [%]	GI% (OVCAR-3) [%]	GI% (MALME-3M) [%]	GI% (SK-MEL-5) [%]	GI% (786-0) [%]	GI% (KM12) [%]	GI% (NCI-H460) [%]	GI% (SK-MEL-28) [%]	GI% (ACHN) [%]	GI% (SR) [%]	GI% (SF-268) [%]	GI% (OVCAR-4) [%]	GI% (MDA-MB-231/ATCC) [%]	GI% (HCT-116) [%]	GI% (LOX IMVI) [%]	other results
CS(=O)(=O)c1ccc(C(=O)N2N=C(c3ccccc3)CC2c2ccc(F)cc2)cc1 (stereo not drawn) [Compound 18c, (5-(4-Fluorophenyl)-3-phenyl-4,5-dihydro-1H-pyrazol-1-yl)(4-(methylsulfonyl)phenyl)methanone]	14	20	39	127 ± 8.23	20																
Cc1ccc(C2=NN(C(=O)c3ccc(S(C)(=O)=O)cc3)C(c3ccc(C)cc3)C2)cc1 (stereo not drawn) [Compound 18g, (3,5-Bis(4-tolyl)-4,5-dihydro-1H-pyrazol-1-yl)(4-(methylsulfonyl)phenyl)methanone]	30		56	94 ± 4.41		23	24	14	38	22	37	17	23	12	50	11	22	14	37	16	GI% (HS 578T): 15%; GI% (SW-620): 25%; GI% (MDA-MB-435): 76%; GI% (SK-MEL-2): 33%; GI% (MDA-MB-468): 45%; GI% (HCT-15): 45%; GI% (UACC-62): 36%; GI% (SF-295): 30%; GI% (M14): 32%; GI% (NCI-H322M): 12%; GI% (SNB-19): 13%; GI% (NCI-H23): 12%; GI% (NCI/ADR-RES): 38%
CS(=O)(=O)c1ccc(C(=O)N2N=C(c3ccccc3)CC2c2ccccc2O)cc1 (stereo not drawn) [Compound 18h, (5-(2-Hydroxyphenyl)-3-phenyl-4,5-dihydro-1H-pyrazol-1-yl)(4-(methylsulfonyl)phenyl)methanone]		16	62	19.3 ± 0.72	41	28	35	21	38	33	21	54	11	25	30	39	22	32	35	34	GI% (SN12C): 17%; GI% (NCI-H226): 15%; GI% (SK-MEL-2): 28%; GI% (MDA-MB-468): 17%; GI% (HCT-15): 56%; GI% (UACC-62): 12%; IC50 [1]: 12.5 ± 0.55 µM; GI% (SF-295): 23%; GI% (M14): 29%; GI% (NCI-H322M): 48%; GI% (SNB-19): 17%; GI% (NCI-H23): 12%; GI% (NCI/ADR-RES): 22%; GI% (CCRF-CEM): 41%
